Experimental data as given in patent US9217014B2, “Antifungal agents and uses thereof” (Cidara Therapeutics, Inc., priority 2011, dated 2015).
Where two headings read alike, the source gives them in different places. *1 amine or outer side, *2 acyl side, *3 side chain or, on linkers, in order; H or OH if unused. Where a SMILES comes first, the peptide text is derived from it. Bridges are numbered along the chain shown (N, C = ends). [ ]: non-standard residue; d: D form. The star is where a group is joined. pTerphenylCO(4''-OnC5H11) = CCCCCOc1ccc(-c2ccc(-c3ccc(C(=O)*)cc3)cc2)cc1; Orn(4R-OH,5R-OH) = O=C([C@H](C[C@@H](O)[C@@H](O)N[*:3])N[*:1])[*:2]; hTyr(3S-OH,4S-OH) = N[C@H](C(=O)O)[C@H](O)[C@@H](O)c1ccc(O)cc1; Pro(3S-OH,4S-Me) = C[C@H]1CN[C@H](C(=O)O)[C@H]1O; Hyp = O=C(O)[C@@H]1C[C@@H](O)CN1

Columns and labels:
[1] = Solubility in non-aqueous solvents; assay type: physicochemical; conditions: organic solvent or mixture, compound 1 as acetate salt
Experimental: The solubility of compound 1 (acetate salt) was also measured in non-aqueous solvents to assess this compound's suitability for formulation in non-aqueous carriers.

[2] = Solubility in aqueous buffers of varying pH; assay type: physicochemical; conditions: ambient temperature, compound 1 as acetate salt
Experimental: The solubility of compound 1 (acetate salt) was measured in aqueous buffers of varying pH to assess this compound's suitability for formulation in an aqueous carrier for administration by injection (e.g., intravenous or intramuscular injection).

C. albicans R303 = test: mouse candidiasis infection model, IP administration, kidney fungal burden; assay type: in vivo
Experimental: The objective of these studies was to evaluate the efficacy of test compounds in the mouse candidiasis infection model. Amounts of test articles are uncorrected.
The strain, C. albicans R303 was transferred from frozen storage onto Sabauroud dextrose agar (SDA) plates and grown for ˜24 hr at 35° C. The inoculum was prepared by transferring colonies from the plate to phosphate buffered saline (PBS) and the concentration adjusted to approximately 10^6 CFU/mL with the aid of a spectrophotometer. The stock was diluted 1:9 to prepare the inoculum. Prior to each run the concentration was verified using the dilution plate count method.
Female CD-1 mice were used in this study. The animals were approximately seven-weeks-old at the start of the study and weighed about 15-30 g.
Mice were made neutropenic with IP injections of cyclophosphamide (150 mg/kg in 10 mL/kg) at 4 and 1 day before inoculation. Each animal was inoculated with the appropriate concentration by injecting 0.1 mL of inoculum into a tail vein. The test compounds were administered IP at 2 hr after infection.
In a typical procedure, the kidneys were collected from four mice in control group 1 (untreated) at 2 hr after infection, and from another four mice in control group 2 (untreated) at 24 hr after infection. Kidneys were removed aseptically from each mouse and were combined in a sterile tube. An aliquot (2 mL) of sterile PBS was added to each tube and the contents homogenized with a tissue homogenizer (Polytron 3100). Serial dilutions of the tissue homogenates were conducted and 0.1 mL aliquots were spread on SDA plates and the plates incubated at 35° C. overnight. The CFU/kidneys were determined from colony counts. Data were analyzed using one-way ANOVA with either the Tukey-Kramer Multiple Comparisons Test or Dunnett Test (GraphPad InStat version 3.06, GraphPad Software, San Diego, Calif.).
The data reported below are the average of four mice. Each run included a separate control and each is tabulated separately.

[3] = Pharmacokinetics in beagle dogs, intravenous; assay type: in vivo; conditions: 1.4 mg/kg intravenous slow bolus, mean ± SEM, n = 4 beagle dogs
Experimental: The test articles were administered to beagle dogs weighing approximately 6-10 kg. Each test article was dosed at 1.4 mg/kg in aqueous saline (with or without 0.5% Tween) over course of 1-10 minutes. […] The dogs were fasted at least 12 hours prior to each dosing and offered food after the 4-hour blood sample was taken; water was withheld for 1 hour prior to and 4 hours following each dosing event. The dose for each animal was based on its most recent body weight. The test article was injected intravenously via a catheter placed in the cephalic vein as a slow bolus.
Blood was collected via the jugular vein. All blood samples (˜1 mL each) were collected into K3EDTA tubes. Following blood collection, the samples were immediately inverted several times and were held on wet ice pending centrifugation. The samples were centrifuged within ˜30 minutes of collection under refrigeration (˜5° C. for ˜10 minutes at ˜2000 g) to obtain plasma. The plasma was frozen immediately on dry ice after separation. The plasma samples were stored at approximately −70° C. until analysis.
Plasma (100 μL) was precipitated with 400 μL of 0.1% formic acid in acetonitrile containing the internal standard (100 ng/mL pneumocandin). The samples were then capped and vortexed for about 30 seconds followed by centrifugation at 14,000 rpm at room temperature for 10 minutes. Following centrifugation 200 μL of supernatant was transferred to plastic autosampler vials containing 200 μL of 0.1% formic acid in water and vortexed. Samples were then analyzed by LCMSMS.
All pharmacokinetic calculations were performed using WinNonlin version 4.1 (Pharsight Corp) by noncompartmental analysis.

CCCCCOc1ccc(-c2ccc(-c3ccc(C(=O)N[C@H]4C[C@@H](O)[C@@H](O)NC(=O)[C@@H]5[C@@H](O)[C@@H](C)CN5C(=O)[C@H]([C@@H](C)O)NC(=O)[C@H]([C@H](O)[C@@H](O)c5ccc(O)cc5)NC(=O)[C@@H]5C[C@@H](O)CN5C(=O)[C@H]([C@@H](C)O)NC4=O)cc3)cc2)cc1 [anidulafungin, reference compound] ({pTerphenylCO(4''-OnC5H11)}-[Orn(4R-OH,5R-OH)]T[Hyp][hTyr(3S-OH,4S-OH)]T[Pro(3S-OH,4S-Me)]; lactam 1-C)
solubility ([1]; Ethanol (EtOH)): > 17600 µg/mL
solubility ([1]; Glycerol): 1500 µg/mL
solubility ([1]; PEG400): > 26800 µg/mL
solubility ([1]; Propylene glycol(PG)): > 17200 µg/mL
solubility ([2]; aqueous buffer, pH 3 (0.01M formate buffer)): < 10 µg/mL
solubility ([2]; aqueous buffer, pH 4.6 (0.1M acetate buffer)): < 10 µg/mL
solubility ([2]; aqueous buffer, pH 5.6 (0.1M acetate buffer)): < 10 µg/mL
solubility ([2]; aqueous buffer, pH 7.4 (0.1M phosphate buffer)): < 10 µg/mL
solubility ([2]; aqueous buffer, pH 8.5 (0.01M TRIS buffer)): < 10 µg/mL
solubility ([2]; saline or isotonic, 0.9% saline): < 10 µg/mL
solubility ([2]; simulated gastric fluid, pH 1 (0.1M HCl)): < 10 µg/mL
log reduction at 1 mg/kg (C. albicans R303; Candida albicans, R303, ip, 24 h, read-out: Difference from 24-h control, Fifth run, IP 1 mg/kg): 2.07
log reduction at 1 mg/kg (C. albicans R303; Candida albicans, R303, ip, 24 h, read-out: Difference from 24-h control, First run, IP 1 mg/kg): 1.83
log reduction at 0.5 mg/kg (C. albicans R303; Candida albicans, R303, ip, 24 h, read-out: Difference from 24-h control, Fourth run, IP 0.5 mg/kg): 1.29
log reduction at 1.5 mg/kg (C. albicans R303; Candida albicans, R303, ip, 24 h, read-out: Difference from 24-h control, Fourth run, IP 1.5 mg/kg): 4.03
log reduction at 0.5 mg/kg (C. albicans R303; Candida albicans, R303, ip, 24 h, read-out: Difference from 24-h control, Second run, IP 0.5 mg/kg): 0.47
log reduction at 1.5 mg/kg (C. albicans R303; Candida albicans, R303, ip, 24 h, read-out: Difference from 24-h control, Second run, IP 1.5 mg/kg): 2.11
log reduction at 4.5 mg/kg (C. albicans R303; Candida albicans, R303, ip, 24 h, read-out: Difference from 24-h control, Second run, IP 4.5 mg/kg): 3.78
Mean log10 CFU/kidneys (±SEM) (C. albicans R303; Fifth run, IP 1 mg/kg, kidneys 24 h after infection): 3.06 ± 0.18 log10 CFU/kidneys
Mean log10 CFU/kidneys (±SD) (C. albicans R303; First run, IP 1 mg/kg, neutropenic mice, kidneys 24 h after infection): 3.37 ± 0.72 log10 CFU/kidneys
Mean log10 CFU/kidneys (±SEM) (C. albicans R303; Fourth run, IP 0.5 mg/kg, kidneys 24 h after infection): 3.81 ± 0.19 log10 CFU/kidneys
Mean log10 CFU/kidneys (±SEM) (C. albicans R303; Fourth run, IP 1.5 mg/kg, kidneys 24 h after infection): 1.08 ± 0.08 log10 CFU/kidneys
Mean log10 CFU/kidneys (±SEM) (C. albicans R303; Second run, IP 0.5 mg/kg, kidneys 24 h after infection): 4.41 ± 0.12 log10 CFU/kidneys
Mean log10 CFU/kidneys (±SEM) (C. albicans R303; Second run, IP 1.5 mg/kg, kidneys 24 h after infection): 2.77 ± 0.20 log10 CFU/kidneys
Mean log10 CFU/kidneys (±SEM) (C. albicans R303; Second run, IP 4.5 mg/kg, kidneys 24 h after infection): 1.10 ± 0.38 log10 CFU/kidneys
CI [3]: 0.785 ± 0.032 mL/min/kg
Vz [3]: 0.779 ± 0.0304 L/kg
half-life ([3]; beagle, dog, in vivo, iv, 1.4 mg/kg, read-out: T ½ (converted)): ~12 h
